Reference: ChEMBL document CHEMBL1201862, “PubChem BioAssay data set” (2004)
Active and inactive are the calls of the source.

Columns and labels:
[1] = BJeHLT cell viability loss – BJeHLT cells, dry powder, counter-screen for Ras selective lethality project, dose response (AID 493052); assay type: functional, cell-based; details: Homo sapiens
[2] = DRD BJ cell killing, Ras synthetic lethality – DRD BJ fibroblasts, HRASV12, dry powder, dose response (AID 493049); assay type: functional, cell-based
[3] = HRAS-V12 fibroblast viability reduction – cell-based, Alamar Blue, dry powder, Ras selective lethality project, primary screen (AID 493045); assay type: functional; details: BJeLR
[4] = BJeH cell viability loss – BJeH cells, dry powder, counter-screen for Ras selective lethality project, dose response (AID 493054); assay type: functional, cell-based
[5] = tested on: Streptococcus sp. 'group A'; test: Streptococcus pyogenes SK(-)GAS viability under kanamycin – luminescence, BacTiterGlo, confirmation, counter-screen for streptokinase expression inhibitor project, dose response (AID 1900); assay type: functional, organism-based
[6] = target: T1, Streptokinase A (Streptococcus pyogenes serotype M1, UniProt P10520); test: viability-normalized secreted streptokinase activity reduction – plasminogen activation absorbance, OD405, dose response (AID 1914); assay type: functional, Streptococcus pyogenes M1 GAS;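 further: secreted streptokinase activity via plasminogen activation per viability signal from cell pellet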
T1 sequence (P10520 whole entry): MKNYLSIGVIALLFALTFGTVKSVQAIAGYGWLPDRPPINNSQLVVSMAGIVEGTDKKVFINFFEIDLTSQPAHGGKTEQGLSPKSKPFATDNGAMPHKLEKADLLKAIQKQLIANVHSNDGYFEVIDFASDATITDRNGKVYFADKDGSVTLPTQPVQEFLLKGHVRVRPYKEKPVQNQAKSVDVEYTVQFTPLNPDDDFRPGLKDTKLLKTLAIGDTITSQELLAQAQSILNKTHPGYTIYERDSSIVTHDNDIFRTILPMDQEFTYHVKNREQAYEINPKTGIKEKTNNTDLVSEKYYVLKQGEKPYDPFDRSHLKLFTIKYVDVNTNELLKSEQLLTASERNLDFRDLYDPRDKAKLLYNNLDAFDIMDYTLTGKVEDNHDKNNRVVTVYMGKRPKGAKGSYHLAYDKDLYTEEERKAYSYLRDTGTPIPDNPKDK

[7] = tested on: Streptococcus; test: GAS UMAA2166 growth inhibition – luminescence, BacTiterGlo, counter-screen for streptokinase expression inhibitor project, dose response (AID 1915); assay type: functional, organism-based;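 further: potency for reduction of bacterial viability or growth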
[8] = tested on: Salmon testes DNA; test: acridine orange-DNA binding displacement – biochemical, fluorescence polarization, cherry-picked samples, set 2, artefact control for KSHV LANA DNA-binding inhibitor project, dose response (AID 504727); set-up: species or system Salmonidae
[9] = target: FAD-linked sulfhydryl oxidase ALR (Homo sapiens, UniProt P55789); test: ALR-catalysed DTT oxidation blockers – biochemical, H2O2 detection, luminescence, cherry-pick, dose response (AID 493248)
[10] = target: T2, Cysteine protease ATG4B (Homo sapiens, UniProt Q9Y4P1); assay type: functional;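 further: Fluorescence-based dose-response confirmation assay measuring inhibition of ATG4B activity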
T2 sequence (Q9Y4P1 whole entry): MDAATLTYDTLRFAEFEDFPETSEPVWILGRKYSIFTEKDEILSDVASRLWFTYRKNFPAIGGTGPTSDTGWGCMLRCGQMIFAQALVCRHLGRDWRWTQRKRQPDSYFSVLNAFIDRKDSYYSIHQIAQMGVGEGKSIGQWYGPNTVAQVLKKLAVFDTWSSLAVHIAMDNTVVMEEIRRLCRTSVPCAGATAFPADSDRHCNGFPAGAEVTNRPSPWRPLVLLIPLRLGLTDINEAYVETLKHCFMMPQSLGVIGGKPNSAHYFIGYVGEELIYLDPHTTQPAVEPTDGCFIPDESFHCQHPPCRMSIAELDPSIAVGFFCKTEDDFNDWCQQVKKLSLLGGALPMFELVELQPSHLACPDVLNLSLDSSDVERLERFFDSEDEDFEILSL

[11] = target: T3, Endoribonuclease toxin MazF (Escherichia coli K-12, UniProt P0AE70); test: activation of MazEF endoribonuclease cleavage – biochemical, fluorescence, single-stranded RNA substrate, uHTS hits, dose response (AID 588481); assay type: functional
T3 sequence (P0AE70 whole entry): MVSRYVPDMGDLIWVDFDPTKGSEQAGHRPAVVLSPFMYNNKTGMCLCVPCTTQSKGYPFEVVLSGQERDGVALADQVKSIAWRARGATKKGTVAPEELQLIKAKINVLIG

[12] = target: Phospholipase A2 (Homo sapiens, UniProt P04054); assay type: functional;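 further: confirmatory dose-response counterscreen on phospholipase A2, testing hits that came from an ultra-high-throughput screen for ATG4B inhibitors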
[13] = target: T3, Endoribonuclease toxin MazF; test: substrate-only fluorescence increase artefacts – biochemical, single-stranded RNase substrate, counter-screen for MazEF activator project, dose response (AID 588502); assay type: functional
[14] = tested on: Vero; test: Vero 76 cell viability after compound exposure – Vero 76 cells, synthesized analogs, cytotoxicity control for West Nile virus antiviral project, SAR follow-up (AID 2414); assay type: functional; details: Chlorocebus sabaeus
[15] = tested on: Vero; test: Vero cell viability after compound exposure – synthesized analogs, set II, cytotoxicity control for West Nile virus antiviral project, SAR follow-up (AID 2402); assay type: functional; details: Chlorocebus sabaeus
[16] = tested on: Vero; test: host cell viability loss, Vero E6 – synthesized analogs, cytotoxicity control for West Nile virus antiviral project, SAR follow-up (AID 2244); assay type: functional; details: Chlorocebus sabaeus
[17] = A Cell Based Assay for the Identification of Probe candidate Compounds with Anti- Venezuelan Equine Encephalitis virus. [Related pubchem assays: 2409, 2419, 1621, 2238, 2405, 2024, 2065, 2402, 2414, 1635, 1650, 2244 ]; assay type: functional
[18] = tested on: Vero; test: antiviral protection of cells from WNV – synthesized analogs, SAR follow-up (AID 2238); assay type: functional, cell-based; details: Chlorocebus sabaeus
[19] = target: T4, Ubiquitin-conjugating enzyme E2 N (Homo sapiens, UniProt P61088); assay type: functional;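 further: Dose-response confirmation in a TR-FRET assay detecting UBC13-driven polyubiquitin chain formation, inhibition measured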
T4 sequence (P61088 whole entry): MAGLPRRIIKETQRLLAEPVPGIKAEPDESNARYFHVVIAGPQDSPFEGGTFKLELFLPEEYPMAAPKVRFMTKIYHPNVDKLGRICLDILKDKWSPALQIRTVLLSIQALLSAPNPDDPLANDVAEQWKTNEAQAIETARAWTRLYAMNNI

[20] = target: Melanin-concentrating hormone receptor 1 (Homo sapiens, UniProt Q99705); test: Late-stage fluorescence-based counterscreen for antagonists of the G-protein coupled receptor 7 (GPR7): cell-based dose response assay to identify antagonists of the melanin-concentrating hormone receptor 1 (MCHR1). [Related pubchem assays (depositor defined):AID1861, AID1880, AID1952, AID2148, AID2251, AID2257, AID485339]; assay type: functional;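 further: stimulated with 30 nM MCH peptide agonist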
[21] = target: Eukaryotic translation initiation factor 4H (Homo sapiens, UniProt Q15056); test: eIF4H binding inhibition – biochemical, uHTS, fluorescence polarization, translation initiation inhibitor project, primary screen (AID 2012)
[22] = target: Polyadenylate-binding protein 1 (Homo sapiens, UniProt P11940); test: blockers of PABP interaction with poly(A) – biochemical, fluorescence polarization, […] (AID 2014)
Chain of Polyadenylate-binding protein 1 (P11940 whole entry): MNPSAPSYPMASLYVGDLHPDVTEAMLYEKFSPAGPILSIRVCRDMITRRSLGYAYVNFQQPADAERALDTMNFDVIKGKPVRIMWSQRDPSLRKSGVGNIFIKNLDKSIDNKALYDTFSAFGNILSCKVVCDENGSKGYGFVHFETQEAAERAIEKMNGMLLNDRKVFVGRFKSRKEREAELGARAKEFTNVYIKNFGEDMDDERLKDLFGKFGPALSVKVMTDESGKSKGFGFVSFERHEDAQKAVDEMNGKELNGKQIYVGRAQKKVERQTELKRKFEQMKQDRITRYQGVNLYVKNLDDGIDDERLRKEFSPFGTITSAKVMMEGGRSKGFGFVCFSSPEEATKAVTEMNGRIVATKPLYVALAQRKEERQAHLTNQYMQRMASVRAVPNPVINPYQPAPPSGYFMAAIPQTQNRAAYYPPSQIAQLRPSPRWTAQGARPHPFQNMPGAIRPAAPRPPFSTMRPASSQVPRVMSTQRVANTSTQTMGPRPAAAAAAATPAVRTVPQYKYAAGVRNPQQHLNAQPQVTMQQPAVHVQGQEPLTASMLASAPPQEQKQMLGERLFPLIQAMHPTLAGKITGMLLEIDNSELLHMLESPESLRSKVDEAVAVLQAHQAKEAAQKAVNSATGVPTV

Chain of Phospholipase A2 (P04054 whole entry): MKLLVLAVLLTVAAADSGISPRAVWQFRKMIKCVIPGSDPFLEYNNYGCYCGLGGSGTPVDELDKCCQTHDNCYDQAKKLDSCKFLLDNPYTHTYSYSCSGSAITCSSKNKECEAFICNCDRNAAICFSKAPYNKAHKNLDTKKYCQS
Chain of Melanin-concentrating hormone receptor 1 (Q99705 whole entry): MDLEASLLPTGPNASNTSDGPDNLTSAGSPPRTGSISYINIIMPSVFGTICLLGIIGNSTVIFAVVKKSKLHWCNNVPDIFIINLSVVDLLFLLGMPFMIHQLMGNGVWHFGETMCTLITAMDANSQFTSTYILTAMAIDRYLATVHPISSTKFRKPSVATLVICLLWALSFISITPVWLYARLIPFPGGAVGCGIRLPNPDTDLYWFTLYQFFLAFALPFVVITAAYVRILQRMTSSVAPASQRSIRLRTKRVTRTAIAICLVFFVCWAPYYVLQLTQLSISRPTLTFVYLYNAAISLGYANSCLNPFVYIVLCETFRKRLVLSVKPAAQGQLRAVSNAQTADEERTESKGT
Chain of FAD-linked sulfhydryl oxidase ALR (P55789 whole entry): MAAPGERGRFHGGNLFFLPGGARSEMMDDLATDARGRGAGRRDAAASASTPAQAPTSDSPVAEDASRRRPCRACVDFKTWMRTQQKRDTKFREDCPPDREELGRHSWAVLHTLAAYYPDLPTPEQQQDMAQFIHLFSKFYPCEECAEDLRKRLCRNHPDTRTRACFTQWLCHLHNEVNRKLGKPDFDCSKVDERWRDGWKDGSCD

COc1ccc(N(C(=O)CCl)C(C(=O)NCS(=O)(=O)c2ccc(C)cc2)c2cccs2)cc1Cl (configuration not stated)
active: AC50 [1] 0.208 µM | AC50 [2] 0.083 µM | AC50 [3] 0.089 µM | AC50 [4] 0.347 µM

O=C(O)C(c1ccccc1)N1C(=O)/C(=C\c2ccc(-c3cccc(Cl)c3)o2)SC1=S (configuration not stated)
active: EC50 [5] 2.37 µM | EC50 [6] 1.37 µM | EC50 [7] 2.23 µM | AC50 [8] 40.7 µM | AC50 [9] 3.54 µM | IC50 [10] 4.41 µM | IC50 [12] 11.2 µM
inactive: EC50 [11] 50.3 µM | EC50 [13] 97.1 µM

CC1CC(C)CN(CCCNC(=O)c2cc3c(s2)-c2ccccc2OC3)C1 (configuration not stated)
inactive: IC50 [19] > 20 µM
active: CC50 [14] 29.4 µM | CC50 [15] 11.2 µM | CC50 [16] 12.4 µM | IC50 [17] 15.5 µM | IC50 [18] > 40 µM

COc1ccc(Oc2c(Cl)cnn(Cc3ccc(C)cc3)c2=O)cc1
active: IC50 [20] 6.3 µM

COc1ccc2[nH]c(O)c(N=NC(=O)Cc3cccs3)c2c1
active: IC50 [21] 11 µM | IC50 [22] 31 µM
